From patent publication US20250353873A1, “COMPOUNDS AND METHODS FOR MODULATING APOE EXPRESSION” (Ionis Pharmaceuticals, Inc., priority 2024, published 2025)
pIC50: −log10 of the molar value. Several values for one entry are separate records, joined by “and”; a condition that tells them apart may be missing. Identical values can stand only once. Strand notation (5' to 3'): a small letter for the sugar, then the base; units joined by * are phosphorothioate-linked, units joined directly phosphodiester-linked; [ ] holds rarer units or linkages, { } end groups; capitals alone tell only the bases. [ms] = mesyl phosphoramidate linkage; e = 2'-O-(2-methoxyethyl) (MOE); k = constrained ethyl (cEt); [5mC] = 5-methylcytosine; d = 2'-deoxy (DNA)

Experiments:
human APOE RNA [1] = assay: Dose-dependent inhibition of human APOE RNA in differentiated SH-SY5Y cells, free uptake, 5 days (Example 5); assay type: cell-based
Description: Modified oligonucleotides selected from the examples above were tested at various doses in differentiated SH-SY5Y cells. The modified oligonucleotides were tested in a series of experiments that had the same culture conditions.
Differentiated SH-SY5Y cells plated at a density of 10,000 cells per well were treated by free uptake with various concentrations of modified oligonucleotide as specified in the tables below. […] APOE RNA levels were measured using the human primer probe set RTS3073 (described herein above). APOE RNA levels were normalized to human PPIA. Human PPIA was amplified using human primer probe set mk_cycloA_2nd (described herein above). Results are presented as percent APOE RNA, relative to the amount of APOE RNA in untreated control cells (% UTC). The half maximal inhibitory concentration (IC50) of each modified oligonucleotide was calculated in GraphPad Prism 10 (GraphPad Software, San Diego, CA) and is also presented in the tables below.

human APOE RNA [2] = assay: Activity in APOE C57BL/6NTac-Apoeem7250 knock-in mice, single ICV bolus, 8 weeks (Example 11); assay type: in vivo; settings: for reduction of human APOE RNA in the cortex: APOE knock-in mouse model, 8 weeks post administration, assay of Example 11; for APOE RNA (% control) Cortex / APOE RNA (% control) Spinal Cord: single ICV bolus 300 μg, 8 weeks post treatment, normalized to mouse Ppia
Procedure, shortened: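 Human APOE knock-in C57BL/6NTac mice given one ICV bolus of 300 μg oligonucleotide; PBS-dosed group as control. At 8 weeks, cortex and spinal cord RNA measured by qRT-PCR (human probe RTS3073), normalized to mouse Ppia, expressed as % of PBS control.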

human APOE RNA [3] = assay: Activity in APOE C57BL/6NTac-Apoeem7250 knock-in mice, single ICV bolus, 16 weeks (Example 12); assay type: in vivo; settings: single ICV bolus 300 μg, 16 weeks post treatment, normalized to mouse Ppia
Procedure, shortened: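 Knock-in mice (3-4 per group) received one ICV bolus of 300 μg oligonucleotide, PBS as control. After 16 weeks, human APOE RNA in cortex and spinal cord measured by RT-qPCR, normalized to mouse Ppia, and reported as % of PBS control.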

human APOE RNA [4] = assay: Activity in APOE C57BL/6NTac-Apoeem7250 knock-in mice, single ICV bolus, 4 weeks (Example 10); assay type: in vivo; settings: single ICV bolus 300 μg, 4 weeks post treatment, normalized to mouse Ppia
Procedure, shortened: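 Knock-in mice (2–4 per group) received one 300 μg ICV bolus of oligonucleotide or PBS. After four weeks, human APOE RNA in cortex and spinal cord measured by RT-qPCR (primer probe set RTS3073), normalized to mouse Ppia, expressed as % of PBS controls.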

human APOE RNA [5] = assay: Dose-dependent reduction of human APOE RNA in HepG2 cells, electroporation, 20,000 cells per well, average of GAPDH- and PPIA-normalized results (Example 4, Table 12); assay type: cell-based; settings: HepG2, 20,000 cells per well
Description: HepG2 cells plated at a density of 20,000 cells per well were treated by electroporation with various concentrations of modified oligonucleotide as specified in the tables below. […] APOE RNA levels were measured using the human primer probe set RTS3073 (described herein above). APOE RNA levels were normalized to human GAPDH, and human PPIA. Human GAPDH was amplified using human primer probe set RTS104 (described herein above). Human PPIA was amplified using human primer probe set mk_cycloA_2nd (described herein above) The average of the GAPDH-normalized results and the PPIA-normalized results are presented in the table below as percent APOE RNA, relative to the amount of APOE RNA in untreated control cells (% UTC). The half maximal inhibitory concentration (IC50) of each modified oligonucleotide was calculated in GraphPad Prism 10 (GraphPad Software, San Diego, CA) and is also presented in the table below.

human APOE RNA [6] = assay: Activity in APOE C57BL/6NTac-Apoeem7250 knock-in mice, single ICV bolus, 20 weeks (Example 13); assay type: in vivo; settings: single ICV bolus 300 μg, 20 weeks post treatment, normalized to mouse Ppia
Procedure, shortened: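 Knock-in mice (n=4) given a single ICV bolus of 300 μg oligonucleotide, PBS as control. After 20 weeks, human APOE RNA in cortex and spinal cord measured by RT-qPCR, normalized to mouse Ppia, expressed as % of PBS-treated animals.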

TezTeoGeoGksTdsGdzAdzAdzTds^mCdsTdsTdsTdsAdzTksTksAesAesAes^mCe (antisense eT[ms]eTeGkG*dT*dG[ms]dA[ms]dA[ms]dT*d[5mC]*dT*dT*dT*dA[ms]kT*kT*eA*eA*eA*e[5mC]) [Compound No. 1809814]
APOE RNA (% UTC) (human APOE RNA [1]; 5 nM, 5 days (Table 13)): 91 % UTC
APOE RNA (% UTC) (human APOE RNA [1]; 13 nM, 5 days (Table 13)): 66 % UTC
APOE RNA (% UTC) (human APOE RNA [1]; 33 nM, 5 days (Table 13)): 61 % UTC
APOE RNA (% UTC) (human APOE RNA [1]; 82 nM, 5 days (Table 13)): 63 % UTC
APOE RNA (% UTC) (human APOE RNA [1]; 205 nM, 5 days (Table 13)): 47 % UTC
APOE RNA (% UTC) (human APOE RNA [1]; 512 nM, 5 days (Table 13)): 53 % UTC
APOE RNA (% UTC) (human APOE RNA [1]; 1,280 nM, 5 days (Table 13)): 39 % UTC
APOE RNA (% UTC) (human APOE RNA [1]; 3,200 nM, 5 days (Table 13)): 39 % UTC
APOE RNA (% UTC) (human APOE RNA [1]; 8,000 nM, 5 days (Table 13)): 41 % UTC
APOE RNA (% UTC) (human APOE RNA [1]; 20,000 nM, 5 days (Table 13)): 33 % UTC
pIC50 (human APOE RNA [1]; 5 days (Table 13)): 6.26
reduction of human APOE RNA in the cortex (human APOE RNA [2]): 64%
APOE RNA (% control) Cortex (human APOE RNA [2]): 36 % control
APOE RNA (% control) Spinal Cord (human APOE RNA [2]): 33 % control

Aes^mCeoTeoTesGesGksTdsGdzAdzAdzTds^mCdsTdsTdsTdsAdzTksTksAesAe (eA*e[5mC]eTeT*eG*kG*dT*dG[ms]dA[ms]dA[ms]dT*d[5mC]*dT*dT*dT*dA[ms]kT*kT*eA*eA) [Compound No. 1757576]
APOE RNA (% control) Cortex (human APOE RNA [3]; cortex): 45 % control
APOE RNA (% control) Spinal Cord (human APOE RNA [3]; spinal cord): 14 % control
APOE RNA (% control) Cortex (human APOE RNA [4]; cortex): 29 % control
APOE RNA (% control) Spinal Cord (human APOE RNA [4]; spinal cord): 23 % control
APOE RNA (% UTC) (human APOE RNA [1]; 5 nM, 5 days (Table 13)): 75 % UTC
APOE RNA (% UTC) (human APOE RNA [1]; 5 nM, 5 days (Table 14)): 68 % UTC
APOE RNA (% UTC) (human APOE RNA [1]; 13 nM, 5 days (Table 13)): 71 % UTC
APOE RNA (% UTC) (human APOE RNA [1]; 13 nM, 5 days (Table 14)): 51 % UTC
APOE RNA (% UTC) (human APOE RNA [1]; 33 nM, 5 days (Table 13)): 45 % UTC
APOE RNA (% UTC) (human APOE RNA [1]; 33 nM, 5 days (Table 14)): 44 % UTC
APOE RNA (% UTC) (human APOE RNA [1]; 82 nM, 5 days (Table 13)): 42 % UTC
APOE RNA (% UTC) (human APOE RNA [1]; 82 nM, 5 days (Table 14)): 35 % UTC
APOE RNA (% UTC) (human APOE RNA [1]; 205 nM, 5 days (Table 13)): 43 % UTC
APOE RNA (% UTC) (human APOE RNA [1]; 205 nM, 5 days (Table 14)): 32 % UTC
APOE RNA (% UTC) (human APOE RNA [1]; 512 nM, 5 days (Table 13)): 31 % UTC
APOE RNA (% UTC) (human APOE RNA [1]; 512 nM, 5 days (Table 14)): 32 % UTC
APOE RNA (% UTC) (human APOE RNA [1]; 1,280 nM, 5 days (Table 13)): 29 % UTC
APOE RNA (% UTC) (human APOE RNA [1]; 1,280 nM, 5 days (Table 14)): 27 % UTC
APOE RNA (% UTC) (human APOE RNA [1]; 3,200 nM, 5 days (Table 13)): 27 % UTC
APOE RNA (% UTC) (human APOE RNA [1]; 3,200 nM, 5 days (Table 14)): 23 % UTC
APOE RNA (% UTC) (human APOE RNA [1]; 8,000 nM, 5 days (Table 13)): 12 % UTC
APOE RNA (% UTC) (human APOE RNA [1]; 8,000 nM, 5 days (Table 14)): 17 % UTC
APOE RNA (% UTC) (human APOE RNA [1]; 20,000 nM, 5 days (Table 13)): 18 % UTC
APOE RNA (% UTC) (human APOE RNA [1]; 20,000 nM, 5 days (Table 14)): 6 % UTC
pIC50 (human APOE RNA [1]; 5 days (Table 13)): 7.15
pIC50 (human APOE RNA [1]; 5 days (Table 14)): 7.70
APOE RNA (% UTC) (human APOE RNA [5]; 5 nM): 94 % UTC
APOE RNA (% UTC) (human APOE RNA [5]; 13 nM): 88 % UTC
APOE RNA (% UTC) (human APOE RNA [5]; 33 nM): 83 % UTC
APOE RNA (% UTC) (human APOE RNA [5]; 82 nM): 77 % UTC
APOE RNA (% UTC) (human APOE RNA [5]; 205 nM): 61 % UTC
APOE RNA (% UTC) (human APOE RNA [5]; 512 nM): 40 % UTC
APOE RNA (% UTC) (human APOE RNA [5]; 1,280 nM): 29 % UTC
APOE RNA (% UTC) (human APOE RNA [5]; 3,200 nM): 22 % UTC
APOE RNA (% UTC) (human APOE RNA [5]; 8,000 nM): 11 % UTC
APOE RNA (% UTC) (human APOE RNA [5]; 20,000 nM): 6 % UTC
pIC50 (human APOE RNA [5]; approximately 24 hours): 6.43
reduction of human APOE RNA in the cortex (human APOE RNA [2]): 79%
APOE RNA (% control) Cortex (human APOE RNA [2]): 29 % control and 21 % control
APOE RNA (% control) Spinal Cord (human APOE RNA [2]): 15 % control and 10 % control
APOE RNA (% control) Cortex (human APOE RNA [6]; cortex): 32 % control
APOE RNA (% control) Spinal Cord (human APOE RNA [6]; spinal cord): 31 % control
